From patent US11753399B2, “Therapeutic compounds” (Gilead Sciences, Inc., priority 2018, dated 2023)

Tests used:
HIV-IIIb = experiment: Test A: Antiviral Assay in MT4 Cells; type: cell-based, HIV-1; conditions: inhibition of virus-induced cell killing, MT-4 cells, HIV-IIIb, 5 days, values normalized to 100%; for inhibition at 0.01 µM / inhibition at 0.2 µM: Human immunodeficiency virus 1, MT4, 120 h; for inhibition at 0.01 µM: read-out: % inhibition at 0.01 μM; for inhibition at 0.2 µM: read-out: % inhibition at 0.20 μM
Description: (§1) MT-4 cells were next mixed with HIV-IIIb at a multiplicity of infection (m.o.i.) of 0.003 for 1 hour, after which time 35 μL of virus/cell mixture (2000 cells) was immediately added to each well containing 40 μL of diluted compound. The plates were then incubated at 37° C. for 5 days. After 5 days of incubation, 25 μl of 2× concentrated CellTiter-Glo Reagent (catalog #G7571, Promega Biosciences, Inc., Madison, Wis.) was added to each well containing MT-4 cells. Cell lysis was carried out by incubating at room temperature for 10 min and then chemiluminescence was read.

MT-4 cells = experiment: Test B: Cytotoxicity Assay (same protocol as Test A, uninfected cells); type: cell-based; conditions: uninfected MT-4 cells, 5 days, CellTiter-Glo
Description: as §1, with “read. […] Compound cytotoxicity and the corresponding CC50 values was determined using the same protocol as described in the antiviral assay (Test A) except that uninfected cells were used.” for “read.”

[1] = as above; type: cell-based; conditions: human, uninfected MT-4 cells, CellTiter-Glo
Description: as §1, with “read. […] Compound cytotoxicity and the corresponding CC50 values was determined using the same protocol as described in the antiviral assay (Test A) except that uninfected cells were used.” for “read.”

[2] = from dose response curve at 0.01 μM (10 nM)
[3] = from dose response curve at 0.20 μM (200 nM)

SMILES	% inhibition at 0.01 μM (HIV-IIIb; [2]) [%]	% inhibition at 0.20 μM (HIV-IIIb; [3]) [%]	CC50 (MT-4 cells) [µM]	inhibition at 0.01 µM (HIV-IIIb; [2]) [%]	inhibition at 0.2 µM (HIV-IIIb; [3]) [%]	CC50 at 5 days [1] [µM]
CC(C)(O)c1nnc(Nc2nn(CC(F)F)c3c(-c4ccc(C#CC(C)(C)S(=O)(=O)C5CC5)nc4[C@H](Cc4cc(F)cc(F)c4)NC(=O)Cn4nc(C(F)F)c5c4C(F)(F)[C@@H]4C[C@H]54)ccc(Cl)c23)o1 [Example 25]	100	100	> 57.1			
CC(C)(O)c1nnc(Nc2nn(CC(F)F)c3c(-c4ccc(C#CC(C)(C)S(=O)(=O)C5CC5)nc4[C@H](Cc4cc(F)cc(F)c4)NC(=O)Cn4nc(C(F)F)c5c4C(F)(F)[C@@H]4C[C@H]54)ccc(Cl)c23)o1 [Example 24]			9.07	100	100	
Cn1nc(NS(C)(=O)=O)c2c(Cl)ccc(-c3ccc(C#CC(C)(C)S(=O)(=O)C4CC4)nc3[C@H](Cc3cc(F)cc(F)c3)NC(=O)Cn3ncc4ccccc43)c21 [Example 61]				3	98	28.4
CC(C)(C#Cc1ccc(-c2ccc(Cl)c3c(NS(=O)(=O)CC4CC4)nn(CC(F)F)c23)c([C@H](Cc2cc(F)cc(F)c2)NC(=O)Cn2nc(C(F)F)c3c2C(F)(F)[C@@H]2C[C@H]32)n1)S(=O)(=O)C1CC1 [Example 26]				100	100	> 57.1
CC(C)(C#Cc1ccc(-c2ccc(Cl)c3c(NS(=O)(=O)C4CC4)nn(C4COC4)c23)c([C@H](Cc2cc(F)cc(F)c2)NC(=O)Cn2nc(C(F)F)c3c2C(F)(F)[C@@H]2C[C@H]32)n1)S(=O)(=O)C1CC1 [Example 41]				100	100	> 57.1
CCS(=O)(=O)Nc1nn(CC(F)F)c2c(-c3ccc(C#CC(C)(C)S(=O)(=O)C4CC4)nc3[C@H](Cc3cc(F)cc(F)c3)NC(=O)Cn3nc(C(F)F)c4c3C(F)(F)[C@@H]3C[C@H]43)cccc12 [Example 51]				67	91	51.2
CC(C)(C#Cc1ccc(-c2ccc(Cl)c3c(NS(C)(=O)=O)nn(CC(F)F)c23)c([C@H](Cc2cc(F)cc(F)c2)NC(=O)Cn2nc(C(F)F)c3c2C(F)(F)[C@@H]2C[C@H]32)n1)S(=O)(=O)C1CC1 [Example 8]				94	94	> 57.1
Cn1nc(NS(=O)(=O)C2CC2)c2c(Cl)ccc(-c3ccc(C#CC(C)(C)S(=O)(=O)C4CC4)nc3[C@H](Cc3cc(F)cc(F)c3)NC(=O)Cn3nc(C(F)F)c4c3C(F)(F)CCC4(F)F)c21 [Example 39]				99	99	> 57.1
Cn1nc(NS(C)(=O)=O)c2c(Cl)ccc(-c3ccc(C#CC(C)(C)S(=O)(=O)C4CC4)nc3[C@H](Cc3cc(F)cc(F)c3)NC(=O)Cn3nc(C(F)F)c(C4CC4)c3C(F)F)c21 [Example 59]				81	93	> 57.1
Cn1nc(NS(C)(=O)=O)c2c(Cl)ccc(-c3ccc(C#CC(C)(C)S(=O)(=O)C4CC4)nc3[C@H](Cc3cc(F)cc(F)c3)NC(=O)Cn3cc(C(F)(F)F)cn3)c21 [Example 65]				27	100	> 50
Cn1nc(NS(C)(=O)=O)c2c(Cl)ccc(-c3ccc(C#CC(C)(C)S(=O)(=O)C4CC4)nc3[C@H](Cc3cc(F)cc(F)c3)NC(=O)Cn3cccn3)c21 [Example 50]				0	36	> 53.6
CC(C)(C#Cc1ccc(-c2ccc(Cl)c3c(NS(=O)(=O)CC4CC4)nn(CC(F)F)c23)c([C@H](Cc2cc(F)cc(F)c2)NC(=O)Cn2nc(C(F)(F)F)c3c2C(F)(F)[C@@H]2C[C@H]32)n1)S(=O)(=O)C1CC1 [Example 27]				100	100	> 57.1
Cn1nc(Nc2nnc(C(C)(C)O)o2)c2c(Cl)ccc(-c3ccc(C#CC(C)(C)S(=O)(=O)C4CC4)nc3[C@H](Cc3cc(F)cc(F)c3)NC(=O)Cn3nc(C(F)F)c4c3C(F)(F)[C@@H]3C[C@H]43)c21 [Example 10]				100	100	18.5
